Some test systems named below: LOX IMVI melanoma; RPMI-8226 leukemia; MALME-3M melanoma; HOP-62 NSCLC; OVCAR-4 ovarian; COLO 205 colon; A549 NSCLC; NCI-H522 lung; CCRF-CEM leukemia; HL-60(TB) leukemia.
Common to all, as to assay: NCI tumour cell line growth inhibition, 48 h

Structures are written as SMILES.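 1) Cells in 96-well plates. 2) Compound, 48 h, 5 concentrations. 3) Linear interpolation between surrounding doses. 4) Unreached endpoint = highest concentration. GI50 = concentration required for 50% inhibition of growth. TGI: concentration producing complete growth inhibition.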

Among the data in PubChem BioAssay (NCI) are TGI and GI50 values, retold here.

Regarding `CN(CCO)CCC1COc2ccccc2O1` (centres undefined), the TGI with LOX IMVI melanoma, in the experiment on RPMI-8226 leukemia, in the experiment with MALME-3M melanoma, in the experiment with HOP-62 NSCLC, with OVCAR-4 ovarian and with COLO 205 colon was over 10 µM each time. The TGI with A549 NSCLC, in the experiment on NCI-H522 lung, with CCRF-CEM leukemia and in the experiment on HL-60(TB) leukemia was over 10 µM in each case.
As to `N#C[S-].[Ce+3].c1ccc(-c2ccccn2)nc1.c1ccc(-c2ccccn2)nc1.c1ccc(-c2ccccn2)nc1`, the GI50 is 4.2 µM with LOX IMVI melanoma; 23 µM with MALME-3M melanoma; 13.2 µM with OVCAR-4 ovarian; 33 µM with COLO 205 colon; 24.8 µM with A549 NSCLC. Moreover, the TGI with LOX IMVI melanoma was 63.7 µM; in the experiment with MALME-3M melanoma, 60.7 µM; in the experiment on OVCAR-4 ovarian, over 100 µM; in the experiment on COLO 205 colon, over 100 µM; in the experiment with A549 NSCLC it was over 100 µM.
As to `COC1=CC(c2ccc[nH]2)=N/C1=C\c1[nH]c(C)c(CC(=O)NCc2ccccc2)c1C`, the GI50 in the experiment with HOP-62 NSCLC was 1.51 µM; in the experiment on OVCAR-4 ovarian, 1.35 µM; in the experiment on COLO 205 colon, 1.38 µM; with A549 NSCLC, 1.66 µM; in the experiment with HL-60(TB) leukemia, 1.63 µM. Moreover, the TGI in the experiment on HOP-62 NSCLC was 2.95 µM; in the experiment on OVCAR-4 ovarian, 2.93 µM; with COLO 205 colon, 2.98 µM; in the experiment on A549 NSCLC, 3.15 µM; in the experiment on HL-60(TB) leukemia it was 3.47 µM.
For the compound `COc1nc2ccc(Cl)c(C(O)c3ccccc3)c2nc1OC` (centres undefined), the TGI with LOX IMVI melanoma was 36.5 µM; in the experiment with RPMI-8226 leukemia it was 34.1 µM; with MALME-3M melanoma, over 100 µM; in the experiment on HOP-62 NSCLC, 38.6 µM; in the experiment on OVCAR-4 ovarian, over 100 µM; in the experiment with COLO 205 colon, 32.5 µM. Moreover, the TGI with A549 NSCLC turned out to be 78.6 µM; in the experiment on NCI-H522 lung, 37.8 µM; in the experiment with CCRF-CEM leukemia, 29.5 µM; in the experiment with HL-60(TB) leukemia, 52.5 µM.
Consider `N/C(=C\c1ccc(/C=C(\NC(=O)c2ccccc2)c2nc3c([nH]2)C(=O)c2ccccc2C3=O)cc1)c1nc2c([nH]1)C(=O)c1ccccc1C2=O`, for which the TGI was found to be 47.1 µM in the experiment on LOX IMVI melanoma; 26.1 µM with RPMI-8226 leukemia; 34 µM in the experiment on OVCAR-4 ovarian; 29.9 µM with COLO 205 colon; 36.5 µM in the experiment with A549 NSCLC; 29.8 µM with NCI-H522 lung. The results for the TGI with CCRF-CEM leukemia and in the experiment on HL-60(TB) leukemia were 57.2 µM and 38.3 µM, respectively.
For the compound `COC(Cc1cc(C(O)(c2ccc(C(C)(C)C)cc2)c2cc(CC(OC)(c3cc(C(OC)(c4ccc(C(C)(C)C)cc4)c4ccc(C(C)(C)C)cc4)c(C)cc3C)c3cc(C(OC)(c4ccc(C(C)(C)C)cc4)c4ccc(C(C)(C)C)cc4)c(C)cc3C)c(C)cc2C)c(C)cc1C)(c1cc(C(OC)(c2ccc(C(C)(C)C)cc2)c2ccc(C(C)(C)C)cc2)c(C)cc1C)c1cc(C(OC)(c2ccc(C(C)(C)C)cc2)c2ccc(C(C)(C)C)cc2)c(C)cc1C`, the TGI in the experiment on LOX IMVI melanoma, in the experiment on MALME-3M melanoma, in the experiment on HOP-62 NSCLC, in the experiment with OVCAR-4 ovarian, in the experiment with COLO 205 colon and with A549 NSCLC was over 75 µM each time. Moreover, the TGI in the experiment with CCRF-CEM leukemia and in the experiment with HL-60(TB) leukemia was over 75 µM throughout.
In the case of `N#CC1(C#N)C(=O)c2ccncc2C1=O`, the TGI with RPMI-8226 leukemia, with MALME-3M melanoma, in the experiment on OVCAR-4 ovarian, in the experiment with COLO 205 colon, in the experiment on A549 NSCLC and in the experiment on NCI-H522 lung was over 100 µM each time. Moreover, the TGI in the experiment with CCRF-CEM leukemia and in the experiment on HL-60(TB) leukemia was over 100 µM throughout.
As for `COc1cc(/C=C2\C(=O)Nc3ccc(Cl)cc32)cc(OC)c1OC`, the GI50 in the experiment with LOX IMVI melanoma was 21.9 µM; with RPMI-8226 leukemia, 3.9 µM; in the experiment on MALME-3M melanoma it was 32 µM; in the experiment with OVCAR-4 ovarian it was 43.9 µM; in the experiment on COLO 205 colon it was 8.01 µM; with A549 NSCLC, 41.2 µM. Further, the figures for the GI50 in the experiment on NCI-H522 lung, in the experiment with CCRF-CEM leukemia and with HL-60(TB) leukemia were 13.7 µM, 7.28 µM and 13.4 µM, respectively. Further, the TGI in the experiment with LOX IMVI melanoma, in the experiment on RPMI-8226 leukemia, with MALME-3M melanoma, in the experiment on OVCAR-4 ovarian, with COLO 205 colon and in the experiment with A549 NSCLC was over 100 µM each time. The TGI with NCI-H522 lung, in the experiment on CCRF-CEM leukemia and in the experiment with HL-60(TB) leukemia was over 100 µM each time.
Regarding `CCCC[n+]1ccn(-c2nc3ccccc3n2C)c1`, the TGI in the experiment with LOX IMVI melanoma, with RPMI-8226 leukemia, in the experiment with MALME-3M melanoma, with HOP-62 NSCLC, in the experiment on OVCAR-4 ovarian and in the experiment with A549 NSCLC was over 100 µM throughout. Moreover, the TGI in the experiment on NCI-H522 lung, in the experiment with CCRF-CEM leukemia and in the experiment with HL-60(TB) leukemia was over 100 µM in each case.
Take `C/C=C(\C)C(=O)OC1C2C(C)=CC(=O)C(O)C2(C)C2C3(O)OCC24C1OC(=O)C(OC(C)=O)C4C(C)C3O` (centres undefined): the TGI with LOX IMVI melanoma turned out to be 0.375 µM; in the experiment with RPMI-8226 leukemia, 0.0377 µM; in the experiment on HOP-62 NSCLC, 0.0415 µM; with OVCAR-4 ovarian, 0.413 µM; in the experiment with COLO 205 colon it was 0.229 µM; in the experiment with A549 NSCLC, 0.648 µM. The values for the TGI in the experiment with CCRF-CEM leukemia and in the experiment on HL-60(TB) leukemia were 0.244 µM and 0.808 µM, respectively.
